{"source": "patent US11111218B2", "about": "“Crystalline form of 5-amino-2,3-dihydrophthalazine-1,4-dione” (METRIOPHARM AG, priority 2016, dated 2021)", "details": "TG-DSC", "description": "Upper trace: Mass loss determined by TG. Lower trace: Heat flow determined by DSC"}
{"smiles": "Nc1cccc2c(=O)[nH][nH]c(=O)c12", "note": "[Form II, 5-amino-2,3-dihydrophthalazine-1,4-dione]", "values": [{"measurement": "thermal stability up to", "setting": "crystalline solid", "value": "up to 320±1 °C"}, {"measurement": "solid state transformation to other forms", "setting": "until thermal degradation of the crystalline compound sets in", "value": "no solid state transformation to other forms is observed"}]}
